Biological target: T1, human CXCR3 (N-delta 4) (Homo sapiens, UniProt P49682)
T1 construct: CD8 leader (N); Flag tag; expressed in transfected cells; membrane preparation
T1 sequence (P49682 5-368 limits assumed): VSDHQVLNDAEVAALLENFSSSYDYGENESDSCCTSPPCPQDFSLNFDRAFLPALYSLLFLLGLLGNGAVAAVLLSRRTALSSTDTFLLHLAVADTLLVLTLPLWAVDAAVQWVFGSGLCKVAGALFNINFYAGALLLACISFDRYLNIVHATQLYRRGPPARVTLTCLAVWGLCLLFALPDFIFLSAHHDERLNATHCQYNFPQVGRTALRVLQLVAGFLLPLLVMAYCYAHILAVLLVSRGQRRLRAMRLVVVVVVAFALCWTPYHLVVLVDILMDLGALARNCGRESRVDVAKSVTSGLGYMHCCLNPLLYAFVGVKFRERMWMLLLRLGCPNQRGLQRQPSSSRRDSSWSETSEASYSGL
Experiment: Human CXCR3 (N-delta 4) scintillation proximity assay (SPA), [125I] IP-10 binding to Ba/F3-hCXCR3 membranes
Conditions: IC50 rating; [125I] IP-10 displacement, human CXCR3; read-out: IC50
From the text: The inventive compounds can readily be evaluated to determine activity at the CXCR3 receptors by known methods, such as, for example, development of a human CXCR3 (N-delta 4) Binding Assay.
The DNA encoding human CXCR3 was cloned by PCR using human genomic DNA (Promega, Madison, Wis.) as a template. The PCR primers were designed based on the published sequence of human orphan receptor GPR9 (1) with incorporated restriction sites, a Kozak consensus sequence, CD8 leader and Flag tag. The PCR product was subcloned into the mammalian expression vector pME18Sneo, a derivative of the SR-alpha expression vector (designated as pME18Sneo-hCXCR3 (N-delta 4).
IL-3-dependent mouse pro-B cells Ba/F3 were transfected by electroporation in 0.4 ml Dulbecco's PBS containing 4×10^6 cells with 20 μg of pME18Sneo-hCXCR3 (N-delta 4) plasmid DNA. Cells were pulsed at 400 Volts, 100 OHMs, 960 μFd. The transfected cells were under selection with 1 mg/ml G418 (Life Technologies, Gaithersburg, Md.). G418-resistant Ba/F3 clones were screened for CXCR3 expression by specific binding of [^125I] IP-10 (NEN Life Science Products, Boston, Mass.).
Ba/F3 cells expressing human CXCR3 (N-delta 4) were pelleted and resuspended in the lysis buffer containing 10 mM HEPES, pH 7.5 and Complete® protease inhibitors (1 tablet per 100 ml) (Boehringer Mannheim, Indianapolis, Ind.) at a cell density of 20×10^6 cells per ml. After 5 minute incubation on ice, cells were transferred to 4639 cell disruption bomb (Parr Instrument, Moline, Ill.) and applied with 1,500 psi of nitrogen for 30 minutes on ice. Large cellular debris was removed by centrifugation at 1,000×g. Cell membrane in the supernatant was sedimented at 100,000×g. The membrane was resuspended in the lysis buffer supplemented with 10% sucrose and stored at −80° C. Total protein concentration of the membrane was determined by BCA method from Pierce (Rockford, Ill.).
Human CXCR3 (N-Delta 4) Scintillation Proximity Assay (SPA):
For each assay point, 2 μg of membrane was preincubated for 1 hr with 300 μg wheat germ agglutinin (WGA) coated SPA beads (Amersham, Arlington Heights, Ill.) in the binding buffer (50 mM HEPES, 1 mM CaCl2, 5 mM MgCl2, 125 mM NaCl, 0.002% NaN3, 1.0% BSA) at room temperature. The beads were spun down, washed once, resuspended in the binding buffer and transferred to a 96-well Isoplate (Wallac, Gaithersburg, Md.). 25 pM of [^125I] IP-10 with tested compounds in a series of titration were added to start the reaction. After 3 hr reaction at room temperature, the amount of [^125I] IP-10 bound to the SPA beads was determined with a Wallac 1450 Microbeta counter.

Row | SMILES | IC50
1 | C[C@@H]1CN(C2CCN(Cc3ccc(Cl)cc3F)CC2)[C@@H](C)CN1c1ncc(Nc2c(NCC(F)(F)F)c(=O)c2=O)cc1Cl [Compound 104] | 0.025 to 0.1 µM
2 | CC[C@H]1CN(c2c(F)cc(Nc3c(NC4CC4)c(=O)c3=O)cc2Cl)CCN1C1CCN(Cc2ccc(Cl)cc2F)CC1 [Compound 105] | 0.025 to 0.1 µM
3 | CC[C@H]1CN(c2ncc(Nc3c(OC)c(=O)c3=O)cc2Cl)CCN1C1CCN(Cc2ccc(Cl)cc2F)CC1 [Compound 106] | 0.025 to 0.1 µM
4 | CC[C@H]1CN(c2ncc(Nc3c(NC4CCC4)c(=O)c3=O)cc2Cl)CCN1C1CCN(C(=O)c2ccc(Cl)cc2)CC1 [Compound 107] | 0.025 to 0.1 µM
5 | CC[C@H]1CN(c2ncc(N(C)c3c(NC4CC4)c(=O)c3=O)cc2Cl)CCN1C1CCN(C(CO)c2ccc(Cl)cc2)CC1 (some centres unmarked) [Compound 108] | 0.025 to 0.1 µM
6 | CC[C@H]1CN(c2ncc(Nc3c(N[C@@H](c4ccc(C)o4)C(C)(C)C)c(=O)c3=O)cc2Cl)CCN1C1CCN([C@H](CO)c2ccc(Cl)cc2)CC1 [Compound 109] | 0.025 to 0.1 µM
7 | CC[C@H]1CN(c2ncc(Nc3c(NCC(=O)OC(C)(C)C)c(=O)c3=O)cc2Cl)CCN1C1CCN([C@H](CO)c2ccc(Cl)cc2)CC1 [Compound 110] | 0.025 to 0.1 µM
8 | CC[C@H]1CN(c2ncc(Nc3c(NC4CC4)c(=O)c3=O)cc2Cl)CCN1C1CCN(C(=O)c2ccc(Cl)cc2N)CC1 [Compound 111] | 0.025 to 0.1 µM
9 | CC[C@H]1CN(c2ncc(N(C)c3c(NC4CC4)c(=O)c3=O)cc2Cl)CCN1C1CCN([C@H](C(N)=O)c2ccc(Cl)cc2)CC1 [Compound 112] | 0.025 to 0.1 µM
10 | CC(C)CCN1CCC(N2C[C@H](C)N(c3ncc(Nc4c(NCC(F)(F)F)c(=O)c4=O)cc3Cl)C[C@H]2C)CC1 [Compound 113] | > 0.1 µM
11 | C[C@@H]1CN(c2ncc(Nc3c(NCC(F)(F)F)c(=O)c3=O)cc2Cl)[C@@H](C)CN1C1CCN(Cc2ccc(C#N)cc2)CC1 [Compound 114] | > 0.1 µM
12 | C[C@@H]1CN(c2ncc(Nc3c(NCC(F)(F)F)c(=O)c3=O)cc2Cl)[C@@H](C)CN1C1CCN(C/C=C/c2ccccc2)CC1 [Compound 115] | > 0.1 µM
13 | C[C@@H]1CN(c2ncc(Nc3c(NCC(F)(F)F)c(=O)c3=O)cc2Cl)[C@@H](C)CN1C1CCN(CCCc2ccccc2)CC1 [Compound 116] | > 0.1 µM
14 | COc1ccc(CN2CCC(N3C[C@H](C)N(c4ncc(Nc5c(NCC(F)(F)F)c(=O)c5=O)cc4Cl)C[C@H]3C)CC2)cc1 [Compound 117] | > 0.1 µM
15 | C[C@@H]1CN(c2ncc(Nc3c(NCC(F)(F)F)c(=O)c3=O)cc2Cl)[C@@H](C)CN1C1CCN(CCCC2CCCCC2)CC1 [Compound 118] | > 0.1 µM
16 | C[C@@H]1CN(c2ncc(Nc3c(NCC(F)(F)F)c(=O)c3=O)cc2Cl)[C@@H](C)CN1C1CCN(Cc2cccc3c2OCO3)CC1 [Compound 119] | > 0.1 µM
17 | C[C@@H]1CN(c2ncc(Nc3c(NCC(F)(F)F)c(=O)c3=O)cc2Cl)[C@@H](C)CN1C1CCN(Cc2ccc3c(c2)OCO3)CC1 [Compound 120] | > 0.1 µM
18 | CSc1ccc(CN2CCC(N3C[C@H](C)N(c4ncc(Nc5c(NCC(F)(F)F)c(=O)c5=O)cc4Cl)C[C@H]3C)CC2)cc1 [Compound 121] | > 0.1 µM
19 | C[C@@H]1CN(c2ncc(NC3C(=O)C(=O)C3NCC(F)(F)F)cc2Cl)[C@@H](C)CN1C1CCN(Cc2ccc3ccccc3c2)CC1 (some centres unmarked) [Compound 122] | > 0.1 µM
20 | COC(=O)c1ccc(CN2CCC(N3C[C@H](C)N(c4ncc(Nc5c(NCC(F)(F)F)c(=O)c5=O)cc4Cl)C[C@H]3C)CC2)cc1 [Compound 123] | > 0.1 µM
21 | C[C@@H]1CN(c2ncc(Nc3c(NCC(F)(F)F)c(=O)c3=O)cc2Cl)[C@@H](C)CN1C1CCN(Cc2ccc(Cl)c(Cl)c2)CC1 [Compound 124] | > 0.1 µM
22 | C[C@@H]1CN(c2ncc(Nc3c(NCC(F)(F)F)c(=O)c3=O)cc2Cl)[C@@H](C)CN1C1CCN(Cc2ccc(Br)cc2)CC1 [Compound 125] | > 0.1 µM

Row | SMILES | IC50
23 | C[C@@H]1CN(c2ncc(Nc3c(NCC(F)(F)F)c(=O)c3=O)cc2Cl)[C@@H](C)CN1C1CCN(Cc2ccc(C#Cc3ccccc3)cc2)CC1 [Compound 126] | > 0.1 µM
24 | CC(C)C1CCC(N2CCC(N3C[C@H](C)N(c4ncc(Nc5c(NCC(F)(F)F)c(=O)c5=O)cc4Cl)C[C@H]3C)CC2)CC1 (some centres unmarked) [Compound 127] | > 0.1 µM
25 | CC[C@H]1CN(c2ncc(Nc3c(N(C)C)c(=O)c3=O)cc2Cl)CCN1C1CCN([C@H](C(=O)NC)c2ccc(Cl)cc2)CC1 [Compound 128] | > 0.1 µM
26 | CC[C@H]1CN(c2ncc(Nc3c(NCC(=O)O)c(=O)c3=O)cc2Cl)CCN1C1CCN([C@H](CO)c2ccc(Cl)cc2)CC1 [Compound 129] | > 0.1 µM
27 | Cc1cc(Nc2c(NCC(F)(F)F)c(=O)c2=O)cnc1N1C[C@@H](C)N(C2CCN(C(=O)C3CCc4ccccc4C3)CC2)C[C@@H]1C (some centres unmarked) [Compound 130] | > 0.1 µM
28 | Cc1cc(Nc2c(NCC(F)(F)F)c(=O)c2=O)cnc1N1C[C@@H](C)N(C2CCN(C(=O)c3ccc(C#N)cc3)CC2)C[C@@H]1C [Compound 131] | > 0.1 µM
29 | CCC(C)CN1CCC(N2C[C@H](C)N(c3ncc(Nc4c(NCC(F)(F)F)c(=O)c4=O)cc3Cl)C[C@H]2C)CC1 (some centres unmarked) [Compound 132] | > 0.1 µM
30 | C[C@@H]1CN(c2ncc(Nc3c(NCC(F)(F)F)c(=O)c3=O)cc2Cl)[C@@H](C)CN1C1CCN(Cc2cc3ccccc3o2)CC1 [Compound 133] | > 0.1 µM
31 | C[C@@H]1CN(c2ncc(Nc3c(NCC(F)(F)F)c(=O)c3=O)cc2Cl)[C@@H](C)CN1C1CCN(Cc2ccc(Cl)cc2Cl)CC1 [Compound 134] | > 0.1 µM
32 | C[C@@H]1CN(c2ncc(Nc3c(NCC(F)(F)F)c(=O)c3=O)cc2Cl)[C@@H](C)CN1C1CCN(Cc2ccc(-c3ccccc3)cc2)CC1 [Compound 135] | > 0.1 µM
33 | C[C@@H]1CN(c2ncc(Nc3c(NCC(F)(F)F)c(=O)c3=O)cc2Cl)[C@@H](C)CN1C1CCN(Cc2cccc(Br)c2)CC1 [Compound 136] | > 0.1 µM
34 | C[C@@H]1CN(c2ncc(Nc3c(NCC(F)(F)F)c(=O)c3=O)cc2Cl)[C@@H](C)CN1C1CCN(Cc2ccccc2OCC(=O)O)CC1 [Compound 137] | > 0.1 µM
35 | C[C@@H]1CN(c2ncc(Nc3c(NCC(F)(F)F)c(=O)c3=O)cc2Cl)[C@@H](C)CN1C1CCN(Cc2ccccc2Sc2ccc(Cl)cc2)CC1 [Compound 138] | > 0.1 µM
36 | CC[C@H]1CN(c2ncc(Nc3c(NCC(=O)OC(C)(C)C)c(=O)c3=O)cc2Cl)CCN1C1CCN([C@@H](CO)c2ccc(Cl)cc2)CC1 [Compound 139] | > 0.1 µM
37 | Cc1cc(OCc2ccccc2)cc(C)c1C(=O)N1CCC(N2C[C@H](C)N(c3ncc(Nc4c(NCC(F)(F)F)c(=O)c4=O)cc3Cl)C[C@H]2C)CC1 [Compound 140] | > 0.1 µM
38 | Cc1cc(Nc2c(NCC(F)(F)F)c(=O)c2=O)cnc1N1C[C@@H](C)N(C2CCN(C(=O)c3ccc(Cl)cc3)CC2)C[C@@H]1C [Compound 141] | > 0.1 µM
39 | C[C@@H]1CN(c2ncc(Nc3c(NCC(F)(F)F)c(=O)c3=O)cc2Cl)[C@@H](C)CN1C1CCN(Cc2ccco2)CC1 [Compound 142] | > 0.1 µM
40 | C[C@@H]1CN(c2ncc(Nc3c(NCC(F)(F)F)c(=O)c3=O)cc2Cl)[C@@H](C)CN1C1CCN(Cc2cccc(C#N)c2)CC1 [Compound 143] | > 0.1 µM
41 | CCC(C)(C)C1CCC(N2CCC(N3C[C@H](C)N(c4ncc(Nc5c(NCC(F)(F)F)c(=O)c5=O)cc4Cl)C[C@H]3C)CC2)C1 (some centres unmarked) [Compound 144] | > 0.1 µM
42 | C[C@@H]1CN(c2ncc(Nc3c(NCC(F)(F)F)c(=O)c3=O)cc2Cl)[C@@H](C)CN1C1CCN(C2CCCC(C(F)(F)F)C2)CC1 (some centres unmarked) [Compound 145] | > 0.1 µM
43 | C[C@@H]1CN(c2ncc(Nc3c(NCC(F)(F)F)c(=O)c3=O)cc2Cl)[C@@H](C)CN1C1CCN(C2CCC(c3ccccc3)CC2)CC1 (some centres unmarked) [Compound 146] | > 0.1 µM
44 | CC(=O)Nc1ccc(CN2CCC(N3C[C@H](C)N(c4ncc(Nc5c(NCC(F)(F)F)c(=O)c5=O)cc4Cl)C[C@H]3C)CC2)cc1 [Compound 147] | > 0.1 µM
